# According to US10758534B2 (Vertex Pharmaceuticals Incorporated, priority 2014, dated 2020):
# Molecular target: T1, F508del (Homo sapiens, UniProt P13569, DEL508-508)
# T1 construct: expressed in transfected cells
# Experiment: Protocol 1: membrane potential optical assay (FLIPR III, voltage sensing dye), identification of potentiator compounds
# Assay type: cell-based
# Settings: Table 3, compounds of Table 1
# Procedure, shortened: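 NIH 3T3 fibroblasts stably expressing F508del were cultured at 27° C for 24 hrs for temperature correction, then treated with compounds or DMSO and loaded with a voltage-sensing redistribution dye. Forskolin added with a Cl⁻ gradient activated the channel; membrane-potential fluorescence on FLIPR III reported increased gating.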
# T1 sequence (P13569 with tags, fused parts or gaps DEL508-508): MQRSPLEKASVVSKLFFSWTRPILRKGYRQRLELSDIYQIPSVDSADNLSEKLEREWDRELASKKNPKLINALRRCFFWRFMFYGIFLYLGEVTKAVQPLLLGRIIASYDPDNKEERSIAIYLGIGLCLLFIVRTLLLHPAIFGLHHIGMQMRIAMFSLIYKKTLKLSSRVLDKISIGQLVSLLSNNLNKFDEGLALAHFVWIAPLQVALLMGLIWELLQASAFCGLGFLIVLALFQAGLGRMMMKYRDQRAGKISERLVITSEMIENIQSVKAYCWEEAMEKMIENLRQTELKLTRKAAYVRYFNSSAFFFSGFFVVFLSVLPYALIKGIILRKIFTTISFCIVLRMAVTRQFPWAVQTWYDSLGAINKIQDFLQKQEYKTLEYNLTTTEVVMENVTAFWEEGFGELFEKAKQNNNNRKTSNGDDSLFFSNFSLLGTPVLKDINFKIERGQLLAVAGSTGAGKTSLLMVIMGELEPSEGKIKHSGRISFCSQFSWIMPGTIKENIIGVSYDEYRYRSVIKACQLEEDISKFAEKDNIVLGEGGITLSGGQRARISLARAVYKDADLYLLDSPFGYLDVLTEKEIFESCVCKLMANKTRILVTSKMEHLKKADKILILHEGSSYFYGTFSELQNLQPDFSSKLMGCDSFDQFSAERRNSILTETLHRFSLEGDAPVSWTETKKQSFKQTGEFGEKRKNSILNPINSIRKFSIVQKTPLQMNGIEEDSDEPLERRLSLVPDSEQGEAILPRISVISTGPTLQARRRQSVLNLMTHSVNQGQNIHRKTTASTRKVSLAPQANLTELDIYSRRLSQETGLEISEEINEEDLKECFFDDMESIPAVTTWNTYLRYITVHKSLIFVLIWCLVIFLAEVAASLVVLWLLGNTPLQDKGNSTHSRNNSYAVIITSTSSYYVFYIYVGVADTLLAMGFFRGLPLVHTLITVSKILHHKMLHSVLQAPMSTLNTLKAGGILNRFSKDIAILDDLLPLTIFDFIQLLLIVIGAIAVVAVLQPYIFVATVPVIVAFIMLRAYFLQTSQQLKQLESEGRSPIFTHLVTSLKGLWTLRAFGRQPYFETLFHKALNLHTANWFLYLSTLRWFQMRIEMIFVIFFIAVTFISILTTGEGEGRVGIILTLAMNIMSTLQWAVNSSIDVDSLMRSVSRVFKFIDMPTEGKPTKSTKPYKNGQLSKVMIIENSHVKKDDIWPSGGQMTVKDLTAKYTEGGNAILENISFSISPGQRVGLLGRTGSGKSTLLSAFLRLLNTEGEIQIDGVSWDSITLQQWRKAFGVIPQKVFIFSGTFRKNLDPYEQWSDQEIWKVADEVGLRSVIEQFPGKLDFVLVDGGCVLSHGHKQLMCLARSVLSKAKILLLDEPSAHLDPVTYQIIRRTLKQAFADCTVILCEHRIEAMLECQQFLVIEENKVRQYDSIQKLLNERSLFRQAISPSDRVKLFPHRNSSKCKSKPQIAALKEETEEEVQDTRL
row,SMILES,EC30
1,"Cc1cc(F)cc(-c2ccc(C(=O)NS(=O)(=O)N3CC[C@H](N)C3)c(N3C[C@@H](C)CC3(C)C)n2)c1 [Compound 1819, N-[(3S)-3-aminopyrrolidin-1-yl]sulfonyl-6-(3-fluoro-5-methyl-phenyl)-2-[(4S)-2,2,4-trimethylpyrrolidin-1-yl]pyridine-3-carboxamide]",++ (“++” means between 3 uM and 10 uM)
2,"CC(C)COc1cc(F)cc(-c2ccc(C(=O)NS(=O)(=O)c3cccc(N)n3)c(N3CC4C5CCC(C5)C43)n2)c1 (centres unmarked) [Compound 1821, N-[(6-amino-2-pyridyl)sulfonyl]-6-(3-fluoro-5-isobutoxy-phenyl)-2-BLAHyl-pyridine-3-carboxamide]",+++ (“+++” means <3 uM)
3,"CC1CN(c2ncccc2C(=O)NS(=O)(=O)c2cccc(Nc3ccc4[nH]ccc4c3)n2)C(C)(C)C1 (centres unmarked) [Compound 1823, N—[[6-(1H-indol-5-ylamino)-2-pyridyl]sulfonyl]-2-(2,2,4-trimethylpyrrolidin-1-yl)pyridine-3-carboxamide]",+++ (“+++” means <3 uM)
4,"C[C@@H]1CN(c2nc(-c3cccc(C#N)c3)ccc2C(=O)NS(=O)(=O)c2cccnc2N)C(C)(C)C1 [Compound 1824, N-[(2-amino-3-pyridyl)sulfonyl]-6-(3-cyanophenyl)-2-[(4S)-2,2,4-trimethylpyrrolidin-1-yl]pyridine-3-carboxamide]",+++ (“+++” means <3 uM)
5,"CC1CN(c2ncccc2C(=O)NS(=O)(=O)c2cccc(N(C)Cc3ccccc3)n2)C(C)(C)C1 (centres unmarked) [Compound 1827, N—[[6-[benzyl(methyl)amino]-2-pyridyl]sulfonyl]-2-(2,2,4-trimethylpyrrolidin-1-yl)pyridine-3-carboxamide]",+++ (“+++” means <3 uM)
6,"CC(C)COc1cc(F)cc(-c2ccc(C(=O)NS(=O)(=O)c3ccccn3)c(N3C[C@@H](C)CC3(C)C)n2)c1 [Compound 1832, 6-(3-fluoro-5-isobutoxy-phenyl)-N-(2-pyridylsulfonyl)-2-[(4S)-2,2,4-trimethylpyrrolidin-1-yl]pyridine-3-carboxamide]",+++ (“+++” means <3 uM)
7,"CC1CN(c2ncccc2C(=O)NS(=O)(=O)c2cccc(N3CCc4c([nH]c5ccccc45)C3)n2)C(C)(C)C1 (centres unmarked) [Compound 1833, N—[[6-(1,3,4,9-tetrahydropyrido[3,4-b]indol-2-yl)-2-pyridyl]sulfonyl]-2-(2,2,4-trimethylpyrrolidin-1-yl)pyridine-3-carboxamide]",+++ (“+++” means <3 uM)
8,"CC1CN(c2ncccc2C(=O)NS(=O)(=O)c2cccc(OC3CCCC3)n2)C(C)(C)C1 (centres unmarked) [Compound 1834, N—[[6-(cyclopentoxy)-2-pyridyl]sulfonyl]-2-(2,2,4-trimethylpyrrolidin-1-yl)pyridine-3-carboxamide]",+++ (“+++” means <3 uM)
9,"CC(C)COc1cc(F)cc(-c2ccc(C(=O)NS(=O)(=O)c3cccc(N)n3)c(N3CC(C(F)(F)F)CCC3C)n2)c1 (centres unmarked) [Compound 1835, N-[(6-amino-2-pyridyl)sulfonyl]-6-(3-fluoro-5-isobutoxy-phenyl)-2-[2-methyl-5-(trifluoromethyl)-1-piperidyl]pyridine-3-carboxamide]",+++ (“+++” means <3 uM)
10,"CC(C)COc1cc(F)cc(-c2ccc(C(=O)NS(=O)(=O)c3ccccc3O)c(N3C[C@@H](C)CC3(C)C)n2)c1 [Compound 1836, 6-(3-fluoro-5-isobutoxy-phenyl)-N-(2-hydroxyphenyl)sulfonyl-2-[(4S)-2,2,4-trimethylpyrrolidin-1-yl]pyridine-3-carboxamide]",+++ (“+++” means <3 uM)
11,"Cc1cc(C)cc(-c2ccc(C(=O)NS(=O)(=O)N3CC[C@H](N)C3)c(N3C[C@@H](C)CC3(C)C)n2)c1 [Compound 1839, N-[(3S)-3-aminopyrrolidin-1-yl]sulfonyl-6-(3,5-dimethylphenyl)-2-[(4S)-2,2,4-trimethylpyrrolidin-1-yl]pyridine-3-carboxamide]",+++ (“+++” means <3 uM)
12,"CC(C)COc1cc(F)cc(-c2ccc(C(=O)NS(=O)(=O)c3cccc(N)n3)c(N3CCC3C)n2)c1 (centres unmarked) [Compound 1840, N-[(6-amino-2-pyridyl)sulfonyl]-6-(3-fluoro-5-isobutoxy-phenyl)-2-(2-methylazetidin-1-yl)pyridine-3-carboxamide]",+++ (“+++” means <3 uM)
13,"CC1CN(c2ncccc2C(=O)NS(=O)(=O)c2cccc(Nc3cccc(Cl)c3)n2)C(C)(C)C1 (centres unmarked) [Compound 1841, N—[[6-(3-chloroanilino)-2-pyridyl]sulfonyl]-2-(2,2,4-trimethylpyrrolidin-1-yl)pyridine-3-carboxamide]",+++ (“+++” means <3 uM)
14,"CC(C)Oc1ccn(-c2ccc(C(=O)NS(=O)(=O)c3cccnc3N)c(N3C[C@@H](C)CC3(C)C)n2)n1 [Compound 1844, N-[(2-amino-3-pyridyl)sulfonyl]-6-(3-isopropoxypyrazol-1-yl)-2-[(4S)-2,2,4-trimethylpyrrolidin-1-yl]pyridine-3-carboxamide]",+++ (“+++” means <3 uM)
15,"CCN(CC)c1cccc(-c2ccc(C(=O)NS(=O)(=O)c3cccnc3N)c(N3C[C@@H](C)CC3(C)C)n2)n1 [Compound 1845, N-[(2-amino-3-pyridyl)sulfonyl]-6-[6-(diethylamino)-2-pyridyl]-2-[(4S)-2,2,4-trimethylpyrrolidin-1-yl]pyridine-3-carboxamide]",+++ (“+++” means <3 uM)

# The remaining lines, values ahead:
row,EC30,SMILES
1,+++ (“+++” means <3 uM),"COc1ccc(-c2ccc(C(=O)NS(=O)(=O)c3cccnc3N)c(N3C[C@@H](C)CC3(C)C)n2)c(F)c1 [Compound 1818, N-[(2-amino-3-pyridyl)sulfonyl]-6-(2-fluoro-4-methoxy-phenyl)-2-[(4S)-2,2,4-trimethylpyrrolidin-1-yl]pyridine-3-carboxamide]"
2,++ (“++” means between 3 uM and 10 uM),"C[C@@H]1CN(c2nc(-c3cccc(O)c3)ccc2C(=O)NS(=O)(=O)c2cccnc2N)C(C)(C)C1 [Compound 1820, N-[(2-amino-3-pyridyl)sulfonyl]-6-(3-hydroxyphenyl)-2-[(4S)-2,2,4-trimethylpyrrolidin-1-yl]pyridine-3-carboxamide]"
3,+++ (“+++” means <3 uM),"CCOc1cccc(-c2ccc(C(=O)NS(=O)(=O)c3cccnc3N)c(N3C[C@@H](C)CC3(C)C)n2)c1 [Compound 1822, N-[(2-amino-3-pyridyl)sulfonyl]-6-(3-ethoxyphenyl)-2-[(4S)-2,2,4-trimethylpyrrolidin-1-yl]pyridine-3-carboxamide]"
4,+++ (“+++” means <3 uM),"COc1cc(OC)cc(-c2ccc(C(=O)NS(=O)(=O)c3cccnc3N)c(N3C[C@@H](C)CC3(C)C)n2)c1 [Compound 1825, N-[(2-amino-3-pyridyl)sulfonyl]-6-(3,5-dimethoxyphenyl)-2-[(4S)-2,2,4-trimethylpyrrolidin-1-yl]pyridine-3-carboxamide]"
5,+++ (“+++” means <3 uM),"CC1CN(c2ncccc2C(=O)NS(=O)(=O)c2cccc(Nc3cccc4cccnc34)n2)C(C)(C)C1 (centres unmarked) [Compound 1826, N—[[6-(8-quinolylamino)-2-pyridyl]sulfonyl]-2-(2,2,4-trimethylpyrrolidin-1-yl)pyridine-3-carboxamide]"
6,+++ (“+++” means <3 uM),"CCOc1cccc(Oc2cccc(S(=O)(=O)NC(=O)c3cccnc3N3CC(C)CC3(C)C)n2)c1 (centres unmarked) [Compound 1828, N—[[6-(3-ethoxyphenoxy)-2-pyridyl]sulfonyl]-2-(2,2,4-trimethylpyrrolidin-1-yl)pyridine-3-carboxamide]"
7,+++ (“+++” means <3 uM),"Cc1cccc(-c2ccc(C(=O)NS(=O)(=O)c3cccnc3N)c(N3C[C@@H](C)CC3(C)C)n2)c1 [Compound 1829, N-[(2-amino-3-pyridyl)sulfonyl]-6-(m-tolyl)-2-[(4S)-2,2,4-trimethylpyrrolidin-1-yl]pyridine-3-carboxamide]"
8,+++ (“+++” means <3 uM),"COc1ccc(F)cc1-c1ccc(C(=O)NS(=O)(=O)c2ccc[nH]c2=O)c(N2C[C@@H](C)CC2(C)C)n1 [Compound 1830, 6-(5-fluoro-2-methoxy-phenyl)-N-[(2-oxo-1H-pyridin-3-yl)sulfonyl]-2-[(4S)-2,2,4-trimethylpyrrolidin-1-yl]pyridine-3-carboxamide]"
9,+++ (“+++” means <3 uM),"CC1CN(c2ncccc2C(=O)NS(=O)(=O)c2cccc(Oc3ccc(F)c(Cl)c3)n2)C(C)(C)C1 (centres unmarked) [Compound 1831, N—[[6-(3-chloro-4-fluoro-phenoxy)-2-pyridyl]sulfonyl]-2-(2,2,4-trimethylpyrrolidin-1-yl)pyridine-3-carboxamide]"
10,+++ (“+++” means <3 uM),"C[C@@H]1CN(c2nc(-c3cc(F)cc(F)c3F)ccc2C(=O)NS(=O)(=O)c2ccc[nH]c2=O)C(C)(C)C1 [Compound 1837, N-[(2-oxo-1H-pyridin-3-yl)sulfonyl]-6-(2,3,5-trifluorophenyl)-2-[(4S)-2,2,4-trimethylpyrrolidin-1-yl]pyridine-3-carboxamide]"
11,+++ (“+++” means <3 uM),"CC1CN(c2ncccc2C(=O)NS(=O)(=O)c2cccc(N3Cc4ccccc4C3)n2)C(C)(C)C1 (centres unmarked) [Compound 1838, N-[(6-isoindolin-2-yl-2-pyridyl)sulfonyl]-2-(2,2,4-trimethylpyrrolidin-1-yl)pyridine-3-carboxamide]"
12,+++ (“+++” means <3 uM),"CC1CN(c2ncccc2C(=O)NS(=O)(=O)c2cccc(O[C@H](C)c3ccccc3)n2)C(C)(C)C1 (stereo partly drawn) [Compound 1842, N—[[6-[(1R)-1-phenylethoxy]-2-pyridyl]sulfonyl]-2-(2,2,4-trimethylpyrrolidin-1-yl)pyridine-3-carboxamide]"
13,+++ (“+++” means <3 uM),"CCOc1cc(C)cc(-c2cnc(N3CC(C)CC3(C)C)c(C(=O)NS(=O)(=O)c3cccc(N)n3)c2)c1 (centres unmarked) [Compound 1843, N-[(6-amino-2-pyridyl)sulfonyl]-5-(3-ethoxy-5-methyl-phenyl)-2-(2,2,4-trimethylpyrrolidin-1-yl)pyridine-3-carboxamide]"
14,+++ (“+++” means <3 uM),C[C@@H]1CN(c2nc(C(C)(C)C)c(C(O)C(O)C3CCCCC3)cc2C(=O)NS(=O)(=O)c2cccc(N)n2)C(C)(C)C1 (some centres unmarked) [Compound 1846]
